The term IC50 denotes the concentration at which inhibition is half-maximal. A lower IC50 goes with greater potency in that assay. In general, inhibition refers to the share of the control response that was lost under treatment.

One assay deals with T1, EGFR (Homo sapiens, UniProt P00533).
T1 construct: started at nucleotide 2189 (corresponding to amino acid 667) and ended at the termination codon; made in house; host or cells: Sf9 insect cells (baculovirus)
In words: EGFR Kinase Assay. Type of assay: biochemical. Particulars: for IC50: GST-EGFR, 5 μM ATP. The source says:
The portion was PCR amplified with primers that added the lambda attB sequences to each end, recombined into an entry vector, then into a, GST destination vector (as described in Gateway Technologies Manual by Invitrogen Corporation, Carlsbad, Calif.).
The destination vector was recombined in the DH10BAC strain of bacteria to produce a bacmid. The bacmid was transfected into Sf 9 cells and the supernatant containing the baculovirus was collected. The GSTEGFR protein was purified using large cultures of Sf 9 cells infected with stock virus. After an appropriate period of time, the cells were collected and lysed. The GSTEGFR was then purified from the lysate on Glutathione-Sepharose columns (as described by Amersham Biosciences, Buckinghamshire, United Kingdom).
The free biotin was separated from the biotinylated polyGluTyr on a gel filtration column.
A mixture of a 10× kinase buffer (500 mM Tris at pH 8.0, 100 mM Magnesium Chloride and 1 mM Sodium Vanadate), DTT (1 mM final from 500 mM stock), ATP (5 μM final from 10 mM stock), biotinylated polyGluTyr (10 μg/μL stock), γ-^33P ATP (10 μCi/μL stock) and water was added to each well (90 μL/well) of a Streptavidin Flashplate (Perkin Elmer, Wellesley, Mass.).
Test compound in 100% DMSO (2 μL) was added to the appropriate wells. Diluted GSTEGFR (1:300 dilution in 50 mM Tris at pH 8.0 and 0.1% bovine serum albumin) (10 μL) was added to the wells to initiate the reactions.
The plates were incubated at 30° C. for 1 hr with shaking. The reacted contents were removed and the plates were sequentially washed three times with a 1×PBS stop buffer (300 μL without Magnesium and Calcium) and 100 mM EDTA. After the final wash, the same stop buffer (200 μL) was added to the wells. The plates were then sealed and read on the TopCount scintillation counter.
Test compounds were assayed in triplicate at 16 concentrations at half-log dilutions starting at 200 uM. A maximum and minimum signal for the assay was determined on each plate. The percent inhibition of a test compound was calculated according to the formula
For a series of test concentrations, the IC50 was derived by graphing percent inhibition against the log of the concentrations tested for a given compound.

A further assay has as its system SK-OV-3. The assay can be described thus: SK-OV-3 Cell Migration Inhibition. The format is cell-based. Particulars: several values in a cell are repeat determinations.
[1] abbreviates: Homo sapiens, SK-OV-3, SK-OV-3 migration.

“And” between values parts separate entries of the source, which are not always exact repeats. Equal entries are not always repeated. A value given as a limit tells only on which side of the number the result lay.

T1 sequence (P00533 667-1210 limits assumed): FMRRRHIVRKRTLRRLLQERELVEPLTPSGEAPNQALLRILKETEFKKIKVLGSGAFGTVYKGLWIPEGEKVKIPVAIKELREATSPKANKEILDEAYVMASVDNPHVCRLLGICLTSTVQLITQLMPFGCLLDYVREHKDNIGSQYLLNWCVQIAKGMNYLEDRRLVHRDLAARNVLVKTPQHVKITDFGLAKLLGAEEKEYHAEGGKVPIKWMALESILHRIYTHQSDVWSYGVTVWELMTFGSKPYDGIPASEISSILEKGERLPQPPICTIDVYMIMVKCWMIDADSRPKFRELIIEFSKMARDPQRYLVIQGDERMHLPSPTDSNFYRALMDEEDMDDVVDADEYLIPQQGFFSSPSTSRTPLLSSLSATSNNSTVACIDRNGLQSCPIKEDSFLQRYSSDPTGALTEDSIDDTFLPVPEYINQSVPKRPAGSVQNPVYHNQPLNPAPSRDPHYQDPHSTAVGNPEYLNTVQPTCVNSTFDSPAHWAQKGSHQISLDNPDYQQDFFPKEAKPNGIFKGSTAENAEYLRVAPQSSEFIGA

Turning to `Fc1ccc(Nc2ncnc3nc(Nc4ccc(CCN5CCOCC5)cc4)sc23)cc1Cl` [Cpd 4, N^7-(3-chloro-4-fluoro-phenyl)-N^2-[4-(2-morpholin-4-yl-ethyl)-phenyl]-thiazolo[4,5-d]pyrimidine-2,7-diamine], the IC50 against EGFR came to 21.7 nM; in the assay on SK-OV-3 (setting [1]), 735 nM; in the assay on SK-OV-3 (SK-OV-3 migration) it was 520 nM. Take `CN(C)CCCNS(=O)(=O)c1ccc(Nc2nc3ncnc(Nc4ccc(F)c(Cl)c4)c3s2)cc1` [Cpd 31, 4-[7-(3-chloro-4-fluoro-phenylamino)-thiazolo[4,5-d]pyrimidin-2-ylamino]-N-(3-dimethylamino-propyl)-benzenesulfonamide]: the IC50 against EGFR was 10.3 nM; with SK-OV-3 (setting [1]), 138 nM; in the assay with SK-OV-3 (SK-OV-3 migration) it was 180 nM and 191 nM. In the case of `COCCN(CCOC)S(=O)(=O)c1ccc(Nc2nc3ncnc(Nc4ccc(F)c(Cl)c4)c3s2)cc1` [Cpd 32, 4-[7-(3-chloro-4-fluoro-phenylamino)-thiazolo[4,5-d]pyrimidin-2-ylamino]-N,N-bis-(2-methoxy-ethyl)-benzenesulfonamide], the IC50 at EGFR is 20.8 nM; in the assay on SK-OV-3 (setting [1]), over 5000 nM.

With `C#Cc1cccc(Nc2ncnc3nc(Nc4ccc(S(=O)(=O)N(CCOC)CCOC)cc4)sc23)c1` [Cpd 33, 4-[7-(3-ethynyl-phenylamino)-thiazolo[4,5-d]pyrimidin-2-ylamino]-N,N-bis-(2-methoxy-ethyl)-benzenesulfonamide], the 50% inhibitory concentration (IC50) on EGFR was found to be 25.3 nM; in the assay on SK-OV-3 (setting [1]), 252 nM. In the same order, the values of `COCCN(CCOC)Cc1ccc(Nc2nc3ncnc(Nc4ccc(F)c(Cl)c4)c3s2)cc1` [Cpd 34, N^2-(4-{[bis-(2-methoxy-ethyl)-amino]-methyl}-phenyl)-N^7-(3-chloro-4-fluoro-phenyl)-thiazolo[4,5-d]pyrimidine-2,7-diamine] are 6.4 nM and 210 nM. Turning to `C#Cc1cccc(Nc2ncnc3nc(Nc4ccc(CN5CCOCC5)cc4)sc23)c1` [Cpd 35, N^7-(3-ethynyl-phenyl)-N^2-(4-morpholin-4-ylmethyl-phenyl)-thiazolo[4,5-d]pyrimidine-2,7-diamine], the IC50 on EGFR was found to be 30 nM; in the assay with SK-OV-3 (setting [1]), 474 nM; in the assay with SK-OV-3 (SK-OV-3 migration), 380 nM. `NS(=O)(=O)c1ccc(Nc2nc3ncnc(Nc4c(F)cccc4F)c3s2)cc1` [Cpd 75, 4-[7-(2,6-difluoro-phenylamino)-thiazolo[4,5-d]pyrimidin-2-ylamino]-benzenesulfonamide] returned an IC50 against EGFR of 187 nM. The same measure, in the same setting: under `NS(=O)(=O)c1ccc(Nc2nc3ncnc(Nc4ccc(Cl)cc4F)c3s2)cc1` [Cpd 76, 4-[7-(4-chloro-2-fluoro-phenylamino)-thiazolo[4,5-d]pyrimidin-2-ylamino]-benzenesulfonamide] stands 40.2 nM. On the same count and under the same terms, under `NS(=O)(=O)c1ccc(Nc2nc3ncnc(Nc4ccc(Br)cc4F)c3s2)cc1` [Cpd 77, 4-[7-(4-bromo-2-fluoro-phenylamino)-thiazolo[4,5-d]pyrimidin-2-ylamino]-benzenesulfonamide] stands 87 nM. Same read-out and setting: under `NS(=O)(=O)c1ccc(Nc2nc3ncnc(Nc4cccc(Br)c4)c3s2)cc1` [Cpd 78, 4-[7-(3-bromo-phenylamino)-thiazolo[4,5-d]pyrimidin-2-ylamino]-benzenesulfonamide] stands 10.5 nM; under `Cc1cccc(Nc2ncnc3nc(Nc4ccc(S(N)(=O)=O)cc4)sc23)c1` [Cpd 79, 4-[7-(3-methyl-phenylamino)-thiazolo[4,5-d]pyrimidin-2-ylamino]-benzenesulfonamide], 14.3 nM; under `NS(=O)(=O)c1ccc(Nc2nc3ncnc(Nc4ccccc4)c3s2)cc1` [Cpd 80, 4-[7-(phenylamino)-thiazolo[4,5-d]pyrimidin-2-ylamino]-benzenesulfonamide], 82.5 nM. For `NS(=O)(=O)c1ccc(Nc2nc3ncnc(Nc4cc(Cl)cc(Cl)c4)c3s2)cc1` [Cpd 81, 4-[7-(3,5-dichloro-phenylamino)-thiazolo[4,5-d]pyrimidin-2-ylamino]-benzenesulfonamide], the IC50 against EGFR was found to be 116 nM. Regarding `NS(=O)(=O)c1ccc(Nc2nc3ncnc(Nc4ccc(Br)c(Cl)c4)c3s2)cc1` [Cpd 82, 4-[7-(4-bromo-3-chloro-phenylamino)-thiazolo[4,5-d]pyrimidin-2-ylamino]-benzenesulfonamide], the IC50 against EGFR came to 5 nM.

On EGFR, `NS(=O)(=O)c1ccc(Nc2nc3ncnc(Nc4ccc(N5CCOCC5)c(Cl)c4)c3s2)cc1` [Cpd 83, 4-[7-(3-chloro-4-(morpholin-4-yl)-phenylamino)-thiazolo[4,5-d]pyrimidin-2-ylamino]-benzenesulfonamide] had an IC50 of 3800 nM. Still for that read-out and setting: under `NS(=O)(=O)c1ccc(Nc2nc3ncnc(Nc4cccc(CN5CCOCC5)c4)c3s2)cc1` [Cpd 84, 4-[7-(3-(morpholin-4-yl)methyl-phenylamino)-thiazolo[4,5-d]pyrimidin-2-ylamino]-benzenesulfonamide] stands 3300 nM.

`NS(=O)(=O)c1ccc(Nc2nc3ncnc(Nc4ccc(CCN5CCOCC5)cc4)c3s2)cc1` [Cpd 85, 4-[7-(4-(morpholin-4-yl)ethyl-phenylamino)-thiazolo[4,5-d]pyrimidin-2-ylamino]-benzenesulfonamide]: half-maximal inhibition against EGFR (IC50) was put at 10100 nM. `NS(=O)(=O)c1ccc(Nc2nc3ncnc(Nc4ccc(N5CCOCC5)cc4)c3s2)cc1` [Cpd 86, 4-[7-(4-(morpholin-4-yl)-phenylamino)-thiazolo[4,5-d]pyrimidin-2-ylamino]-benzenesulfonamide] registered an IC50 on EGFR of 17900 nM. Turning to `COc1ccc(Nc2ncnc3nc(Nc4ccc(S(N)(=O)=O)cc4)sc23)cc1CN1CCOCC1` [Cpd 87, 4-[7-(4-methoxy-3-(morpholin-4-yl)methyl-phenylamino)-thiazolo[4,5-d]pyrimidin-2-ylamino]-benzenesulfonamide], the inhibition at 2 µM at EGFR (test concentration of 2 μM, compounds without an IC50, read-out: EGFR percent inhibition) came out at 13%. `Fc1ccc(Nc2ncnc3nc(Nc4ccccc4)sc23)cc1Cl` [Cpd 88, N^7-(3-chloro-4-fluoro-phenyl)-N^2-phenyl-thiazolo[4,5-d]pyrimidine-2,7-diamine]: the IC50 against EGFR amounted to 59.3 nM. On EGFR, `Clc1cccc(Nc2ncnc3nc(Nc4ccccc4)sc23)c1` [Cpd 89, N^7-(3-chloro-phenyl)-N^2-phenyl-thiazolo[4,5-d]pyrirnidine-2,7-diamine] had a 50% inhibitory concentration (IC50) of 27.1 nM. Regarding `Brc1cccc(Nc2ncnc3nc(Nc4ccccc4)sc23)c1` [Cpd 90, N^7-(3-bromo-phenyl)-N^2-phenyl-thiazolo[4,5-d]pyrimidine-2,7-diamine], half-maximal inhibition against EGFR (IC50) was put at 16.5 nM.

At EGFR, `Clc1cc(Cl)cc(Nc2ncnc3nc(Nc4ccccc4)sc23)c1` [Cpd 91, N^7-(3,5-dichloro-phenyl)-N^2-phenyl-thiazolo[4,5-d]pyrimidine-2,7-diamine] showed an IC50 of 733 nM. The same measure, in the same setting: the value for `N#Cc1ccc(Nc2nc3ncnc(Nc4ccc(F)c(Cl)c4)c3s2)cc1` [Cpd 92, 4-[7-(3-chloro-4-fluoro-phenylamino)-thiazolo[4,5-d]pyrimidin-2-ylamino]-benzonitrile] was 15.4 nM; that for `N#Cc1ccc(Nc2nc3ncnc(Nc4cccc(Cl)c4)c3s2)cc1` [Cpd 93, 4-[7-(3-chloro-phenylamino)-thiazolo[4,5-d]pyrimidin-2-ylamino]-benzonitrile] was 25.5 nM.

These data come from patent US7605154B2, “Substituted Thiazolo [4,5-d]pyrimidines as protein kinase inhibitors” (Janssen Pharmaceutica N.V., priority 2005, dated 2009).
